System: guinea pigs
Experiment: Effect on the flow rate of urine in guinea pigs, single or combined use, Experimental Example 4
Assay type: in vivo, Hartley male guinea pigs
Source text: Effect on the flow rate of urine by single or combined use of Compounds of Reference Examples, distigmine, prazosin, and tamsulosin was examined using Hartley male guinea pigs. Four to six Hartley male guinea pigs weighing about 350 g (SLC) were employed in each treated group. Guinea pigs were anesthetized with urethane, and held, and the bladder was exposed. Two polyethylene tubes (PE-100) were inserted into the bladder. One of the tubes was used in infusion of physiological saline, and the other used for measurement of the internal pressure of the bladder. Saline was infused continuously at a flow rate of 0.3 mL/min. The infusion was stopped at the time when intermittent urination was confirmed at least 3 times, and the whole saline in bladder was removed. Again, infusion was started, and stopped at the time when a rise of the pressure in bladder was confirmed immediately before urination. Excreted urine was weighed on an electronic force balance (HX-400, A&D). Analogue data of the internal pressure of the bladder and urine weight were input in an AD converter (MP-30, Biopac Systems) and the digital signal was analyzed by means of purpose-made software (Student lab pro 2.1.5, Biopac Systems). Sampling interval of the date was fixed at 0.1 second, and the value of urine weight was differentiated to determine the flow rate of urine. In order to remove data noise of the excretion volume and flow rate of urine, the data was adapted to a lowcut filter at 0.5 Hz.
Measurement was made 2 times before administration of the test compound, and then the test compound was administered intravenously. Again, measurement was made 10 minutes after administration of the test compound.
The average measured value before administration of the test compounds was regarded as the value before administration, and the rate of change of the values from the ante-administration to the post-administration was calculated to compare between the groups by means of the Dunnet's test.

`CN(CCCCCCN(C)C(=O)Oc1ccc[n+](C)c1)C(=O)Oc1ccc[n+](C)c1` [Distigmine, reference compound] was tested, and the “improvement of the flow rate of urine (in words)” value (conclusion from Tables 8 and 9, alone and in combination with α-blockers) was “poor and not enhanced even in combination with an α-blocker prazosin”, the “Flow Rate (mL/sec) Ante-admn.” value (guinea pig, distigmine 1.0 mg/kg i.v. group, before administration (Table 8)) was 0.25 ± 0.05 mL/s and the “Flow Rate (mL/sec) Post-admn.” value (guinea pig, distigmine 1.0 mg/kg i.v., 10 minutes after administration (Table 8)) was 0.22 ± 0.05 mL/s. For the same compound, the “Improvement (%)” value (guinea pig, distigmine 1.0 mg/kg i.v., 10 minutes after administration, control DMSO (Table 8)) was −8.31 ± 11.13%.

Source: patent US8252814B2, “Agents and crystals for improving excretory potency of urinary bladder” (priority 1998, dated 2012)
